Test results from ChEMBL document CHEMBL5576037, “Discovery of the first ataxia telangiectasia and Rad3-related (ATR) degraders for cancer treatment” (Eur J Med Chem, 2024).
pIC50: −log10 of the molar value. Calls of active or inactive are those of the source. The rule behind the calls is not given here.

Assays:
[1] = Free drug concentration in tumor of BALB/c nude mouse xenografted with human LoVo cells at 25 mg/kg, ip administered as single dose and measured after 12 hrs by LC-MS/MS analysis; assay type: ADME, organism-based; settings: in vivo
[2] = molecular target: T1, ATPase family gene 2 protein homolog B (Homo sapiens) (UniProt Q9BVQ7); assay: Induction of SPATA5L1 degradation in human LoVo cells at 1 uM incubated for 24 hrs by global proteomic profiling analysis; assay type: cell-based
T1 sequence (whole entry): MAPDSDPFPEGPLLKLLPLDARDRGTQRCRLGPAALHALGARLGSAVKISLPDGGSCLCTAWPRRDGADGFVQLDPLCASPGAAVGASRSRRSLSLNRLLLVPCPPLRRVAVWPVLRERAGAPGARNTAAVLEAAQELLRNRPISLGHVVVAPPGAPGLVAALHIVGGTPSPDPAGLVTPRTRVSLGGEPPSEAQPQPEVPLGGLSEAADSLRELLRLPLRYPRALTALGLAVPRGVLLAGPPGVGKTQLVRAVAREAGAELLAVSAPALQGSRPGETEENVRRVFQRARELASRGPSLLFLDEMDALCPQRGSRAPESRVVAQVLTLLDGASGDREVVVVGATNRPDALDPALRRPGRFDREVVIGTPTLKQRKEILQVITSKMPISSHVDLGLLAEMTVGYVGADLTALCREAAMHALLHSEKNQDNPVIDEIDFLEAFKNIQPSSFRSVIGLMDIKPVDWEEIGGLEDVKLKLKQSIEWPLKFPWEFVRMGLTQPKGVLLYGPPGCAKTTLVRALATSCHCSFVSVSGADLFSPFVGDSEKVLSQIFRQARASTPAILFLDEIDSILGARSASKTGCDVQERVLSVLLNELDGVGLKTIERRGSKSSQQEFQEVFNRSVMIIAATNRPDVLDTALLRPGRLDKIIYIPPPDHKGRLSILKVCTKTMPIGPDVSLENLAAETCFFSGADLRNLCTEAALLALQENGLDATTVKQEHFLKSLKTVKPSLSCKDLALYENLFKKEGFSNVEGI

[3] = AUC (0 to t) in BALB/c nude mouse xenografted with human LoVo cells at 25 mg/kg, ip administered as single dose and measured after 12 hrs by LC-MS/MS analysis; assay type: ADME, organism-based; settings: in vivo
[4] = molecular target: Protein cereblon/Serine/threonine-protein kinase ATR (Homo sapiens, UniProt Q13535+Q96SW2); assay: PROTAC activity at CRBN/ATR in human LoVo cells assessed as increase in ATR-CRBN protein-protein interaction by co-immunoprecipitation analysis; assay type: cell-based
Sequence of Protein cereblon/Serine/threonine-protein kinase ATR (Q13535 whole entry, looked up): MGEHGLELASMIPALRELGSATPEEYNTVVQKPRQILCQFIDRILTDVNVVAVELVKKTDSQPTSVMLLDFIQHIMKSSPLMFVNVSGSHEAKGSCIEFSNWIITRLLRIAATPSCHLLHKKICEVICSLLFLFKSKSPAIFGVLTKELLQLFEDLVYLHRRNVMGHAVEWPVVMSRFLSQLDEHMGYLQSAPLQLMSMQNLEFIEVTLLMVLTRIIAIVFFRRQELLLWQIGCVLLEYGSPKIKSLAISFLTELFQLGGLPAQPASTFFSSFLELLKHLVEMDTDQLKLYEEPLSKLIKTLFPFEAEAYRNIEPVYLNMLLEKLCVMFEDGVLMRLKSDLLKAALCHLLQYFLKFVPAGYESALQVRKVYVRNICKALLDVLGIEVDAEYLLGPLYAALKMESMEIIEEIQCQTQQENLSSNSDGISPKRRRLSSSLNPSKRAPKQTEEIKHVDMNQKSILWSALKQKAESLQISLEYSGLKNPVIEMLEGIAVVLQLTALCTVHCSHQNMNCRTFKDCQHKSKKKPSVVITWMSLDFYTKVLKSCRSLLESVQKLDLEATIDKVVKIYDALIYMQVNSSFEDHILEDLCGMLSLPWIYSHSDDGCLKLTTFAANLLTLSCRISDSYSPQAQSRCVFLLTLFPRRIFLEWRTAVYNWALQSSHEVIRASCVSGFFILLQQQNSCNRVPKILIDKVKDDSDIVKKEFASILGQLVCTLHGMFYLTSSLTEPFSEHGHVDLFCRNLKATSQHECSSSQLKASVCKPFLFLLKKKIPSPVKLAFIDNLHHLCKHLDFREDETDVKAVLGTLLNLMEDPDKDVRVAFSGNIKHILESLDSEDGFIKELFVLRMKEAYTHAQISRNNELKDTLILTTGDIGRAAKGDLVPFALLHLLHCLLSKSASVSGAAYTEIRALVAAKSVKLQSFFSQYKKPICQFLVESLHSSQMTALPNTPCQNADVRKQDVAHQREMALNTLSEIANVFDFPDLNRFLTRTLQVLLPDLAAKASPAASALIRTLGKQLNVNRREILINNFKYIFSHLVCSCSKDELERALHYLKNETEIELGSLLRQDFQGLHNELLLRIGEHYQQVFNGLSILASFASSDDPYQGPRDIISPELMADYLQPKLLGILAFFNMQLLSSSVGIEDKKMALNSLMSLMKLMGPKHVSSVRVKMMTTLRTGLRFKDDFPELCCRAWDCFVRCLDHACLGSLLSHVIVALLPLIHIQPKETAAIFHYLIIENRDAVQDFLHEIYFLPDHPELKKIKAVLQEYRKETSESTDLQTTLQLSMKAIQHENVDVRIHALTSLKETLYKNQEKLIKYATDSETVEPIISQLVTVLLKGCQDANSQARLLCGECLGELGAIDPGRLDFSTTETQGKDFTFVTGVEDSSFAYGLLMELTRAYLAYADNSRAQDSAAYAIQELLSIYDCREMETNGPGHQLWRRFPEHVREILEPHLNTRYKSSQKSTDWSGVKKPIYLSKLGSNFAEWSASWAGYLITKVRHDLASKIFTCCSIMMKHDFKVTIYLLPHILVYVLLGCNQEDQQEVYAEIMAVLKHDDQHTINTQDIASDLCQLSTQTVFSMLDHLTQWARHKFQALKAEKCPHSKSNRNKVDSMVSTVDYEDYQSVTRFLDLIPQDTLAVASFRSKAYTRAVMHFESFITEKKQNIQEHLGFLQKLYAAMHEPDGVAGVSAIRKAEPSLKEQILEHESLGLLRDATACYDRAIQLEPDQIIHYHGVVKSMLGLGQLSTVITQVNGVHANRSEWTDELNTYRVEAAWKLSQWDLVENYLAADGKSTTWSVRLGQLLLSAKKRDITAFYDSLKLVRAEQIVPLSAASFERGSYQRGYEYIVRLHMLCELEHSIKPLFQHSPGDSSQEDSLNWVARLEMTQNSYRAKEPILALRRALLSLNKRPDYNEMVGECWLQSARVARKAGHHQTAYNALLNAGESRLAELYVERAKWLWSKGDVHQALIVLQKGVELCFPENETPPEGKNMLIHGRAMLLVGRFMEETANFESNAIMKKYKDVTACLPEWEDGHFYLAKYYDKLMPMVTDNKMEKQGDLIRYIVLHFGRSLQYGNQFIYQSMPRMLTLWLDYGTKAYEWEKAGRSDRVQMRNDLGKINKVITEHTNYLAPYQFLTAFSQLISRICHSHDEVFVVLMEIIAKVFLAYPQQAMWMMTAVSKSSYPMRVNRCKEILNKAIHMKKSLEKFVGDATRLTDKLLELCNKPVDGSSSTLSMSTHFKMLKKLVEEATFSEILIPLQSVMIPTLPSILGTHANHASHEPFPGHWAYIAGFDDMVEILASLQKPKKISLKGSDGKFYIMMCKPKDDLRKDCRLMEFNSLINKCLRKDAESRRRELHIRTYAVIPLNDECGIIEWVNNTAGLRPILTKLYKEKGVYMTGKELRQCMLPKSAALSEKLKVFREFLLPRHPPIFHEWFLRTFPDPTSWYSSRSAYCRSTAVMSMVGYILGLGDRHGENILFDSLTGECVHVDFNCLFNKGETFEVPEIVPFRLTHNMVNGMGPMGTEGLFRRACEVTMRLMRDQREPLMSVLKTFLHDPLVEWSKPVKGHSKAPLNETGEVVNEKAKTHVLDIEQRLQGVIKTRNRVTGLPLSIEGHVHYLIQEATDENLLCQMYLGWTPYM
Sequence of Protein cereblon/Serine/threonine-protein kinase ATR (Q96SW2 whole entry, looked up): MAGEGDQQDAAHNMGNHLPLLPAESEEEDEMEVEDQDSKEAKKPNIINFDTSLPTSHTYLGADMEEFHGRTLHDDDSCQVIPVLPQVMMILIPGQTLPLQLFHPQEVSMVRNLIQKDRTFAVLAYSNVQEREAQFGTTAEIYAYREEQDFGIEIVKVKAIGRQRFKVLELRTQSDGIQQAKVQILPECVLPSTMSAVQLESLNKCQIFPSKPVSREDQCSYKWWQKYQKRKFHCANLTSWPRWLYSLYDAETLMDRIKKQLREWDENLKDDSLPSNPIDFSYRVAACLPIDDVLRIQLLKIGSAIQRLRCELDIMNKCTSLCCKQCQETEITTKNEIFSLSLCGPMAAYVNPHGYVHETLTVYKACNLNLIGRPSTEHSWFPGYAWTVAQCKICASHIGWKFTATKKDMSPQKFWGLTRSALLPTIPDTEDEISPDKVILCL

HCT-116 = assay: Antiproliferative activity against human HCT-116 cells expressing wildtype ATM incubated for 72 hrs by CCK8 assay; assay type: functional, cell-based; settings: HCT-116, 72 h
NCM460 = assay: Cytotoxicity against human NCM460 cells; assay type: toxicity, cell-based
LoVo [5] = assay: Cell cycle arrest in human LoVo cells assessed as accumulation of cells at G0/G1 phase at 1 uM incubated for 72 hrs by PI staining based flow cytometric analysis (reference value: 52.3 %); assay type: functional
LoVo [6] = assay: Induction of DNA damage in human LoVo cells assessed as increase in gammaH2AX expression at 0.5 to 1 uM incubated for 72 hrs by DAPI staining based immunofluorescence analysis; assay type: functional, cell-based; settings: dose 0.5-1 µM

Drug uptake(free) [1]: ~ 6 uM | Activity [2]: Active | AUC(0-t) at 12 h [3]: 4550 ng·h/mL | Activity [4]: Active | pIC50 (HCT-116): 5.29
SMILES: C[C@@H]1COCCN1c1cc(C2([S@@](C)(=O)=NC(=O)CCc3cn(CCCCCCCC(=O)Nc4cccc5c4C(=O)N(C4CCC(=O)NC4=O)C5=O)nn3)CC2)nc(-c2ccnc3[nH]ccc23)n1 (stereo partly drawn)
Activity (NCM460): Non-Toxic | Activity (LoVo [5]): 67.3% | Activity (LoVo [6]): Active
